# Data reported in ChEMBL document CHEMBL1139734, “Exploration of the diketoacid integrase inhibitor chemotype leading to the discovery of the anilide-ketoacids chemotype” (Bioorg Med Chem Lett, 2006).
# Assay: Inhibition of HIV integrase-mediated strand transfer activity
# Design: species or system Human immunodeficiency virus
row,Compound,IC50 [nM]
1,O=C(/C=C(\O)C(=O)O)Cc1ccccc1,> 200000
2,O=C(/C=C(\O)C(=O)O)Nc1cccc(Cl)c1,700
3,O=C(/C=C(\O)C(=O)O)Nc1ccc(F)cc1,13400
4,O=C(/C=C(\O)C(=O)O)Nc1ccc(Cl)cc1,5600
5,CN(C(=O)/C=C(\O)C(=O)O)c1cccc(Cl)c1,> 125000
6,O=C(/C=C(\O)C(=O)O)Nc1ccc(Cl)c(Cl)c1,160
7,O=C(O)/C(O)=C/C(=O)N1CCc2cc(Cl)c(Cl)cc21,20
8,O=C(O)/C(O)=C/C(=O)N1CCc2ccccc21,200
9,O=C(O)/C(O)=C/c1nc2ccc(Cl)cc2o1,> 100000
10,O=C(O)/C(O)=C/C(=O)N1CCc2cc(F)ccc21,230
11,O=C(/C=C(\O)C(=O)O)Nc1ccc(F)c(F)c1,2400
